# Source: patent US10285939B2, “Means and methods for ocular drug delivery” (Eberhard Karls Universität Tübingen Medizinische Fakultät, priority 2013, dated 2019)
# [C12U] = 2'-deoxyuridine carrying a dodecyne (lipid) modification
# Assays:
# [1] = In-vitro adhesion to porcine eye; conditions: NPs 20 μM, 15 minutes incubation, thoroughly washed in PBS
# Protocol: In order to further gauge the adherence of different nanoparticles (NPs) to the eye surface, porcine eyes were obtained from the local slaughterhouse and exposed to the different NPs. The NPs were prepared as described in example 1, section 1.2, at a concentration of 20 μM. The porcine eye was transferred to a 6-well plate and 2 rings of different diameter were placed on top of the cornea to prevent spillage of the NP solution. Subsequently, 50 μl of NP solution was put on top of the cornea and incubated for 15 minutes. Afterwards, the rings were removed using tweezers and the eyes were thoroughly washed in PBS (PAA, Germany). The eye was divided into two along the visual axis. Of the two halves one was stored in formaldehyde, whereas the other was frozen in Tissue Tek, cut on a cryostat, stained with DAPI and photographed as described in example 1. To determine the binding capabilities of the NPs, they were exposed to porcine eyes obtained from the local slaughterhouse. For comparison the NPs from example 1 were included in the experiments. After 15 minutes of incubation with the NPs, the porcine eye was thoroughly washed in PBS buffer and frozen in tissue tek. The adhesion to the cornea was evaluated by fluorescence microscopy (See FIG. 8).
# [2] = test system: corneal epithelium of living rats; experiment: Adhesion of fluorescently labelled DNA amphiphile NP eye drops to the cornea of living rats; assay type: in vivo, rat; conditions: for Number of NP positive eyes out of total number eyes: 20 μM, conscious rats; for adhesion to the cornea (fluorescence images of cryo sections): in-vivo rat eye
# Protocol: Adult Lister Hooded Rats were obtained from Harlan Winkelmann, Germany. For the eye drop applications the conscious rats were very shortly fixated and a drop was administered to the eye using a single drop device as in medical applications. Blinking of the eyes was not hindered during drop application or afterwards. After the designated incubation time-point the rat were sacrificed with carbon dioxide inhalation.
# After the predetermined time point the animal was sacrificed and the eyes were enucleated and frozen in Tissue-Tek O.C.T. (Sakura Finetek, Germany) in liquid nitrogen. Frozen sections were longitudinally cut (12 μm) on a cryostat (Leica CM 1900, Germany), thaw-mounted onto glass slides (Superfrost plus, R. Langenbrinck Labor- and Medizintechnik, Germany) and stored at −30° C. until further use. Further processing was performed using standard procedures. Briefly, for visualisation sections were fixed with methanol and to stain nuclei, sections were further incubated in a solution containing 0.2 μg/ml 4′,6-diamidino-2-phenylindol (DAPI) for 1 min. Stained sections were embedded in FluorSave (Calbiochem, Germany) and imaged using a fluorescent microscope (Axioplan2 Imaging®, Zeiss, Germany with the Openlab software, Improvision, Germany).^33 Animals were treated according to the Principles of laboratory animal care (NIH publication No. 85-23, revised 1985), the OPRR Public Health Service Policy on the Human Care and Use of Laboratory Animals (revised 1986) and the German animal protection law (Research permission AK3/11 to S.S.)
# The eye drops containing the different fluorescently labelled DNA amphiphiles at a concentration of 20 μM were administered to conscious rats using a single drop of 30 μL and 30 min, 2 or 24 h after application the animals were sacrificed. Cryo sections of the treated eyes were prepared and imaged using fluorescence microscopy. As controls, single stranded (ss) and double stranded (ds) DNA lacking the lipid-modified nucleotide were administered as eye drops in the same fashion. Selection of the best carrier was performed by comparing the number of DNA amphiphile stained eyes to the total number of eyes to which eye drops were given and, in the case of an equal amount of positives, by visual comparison of the cryo sections (see Table 3).
# After selection of U4T-12 as the best carrier, the adherence time on the cornea was evaluated (see FIG. 3). The NPs of U4T-12 are already observed 5 min after application of the eye drops, thus showing a fast adherence to the cornea. Then the NPs are present for a period of at least four hours because distinct green fluorescence of the carrier was clearly visible. […] After these successful proof-of-concept experiments we applied U4T-12 aptamer-functionalized carriers loaded with neomycinB or kanamycinB because these two antibiotics are currently used for treatment of ophthalmic indications. For localization of the drug loaded carrier the aptamer was functionalized with a red fluorescent dye at the 5′ end. The eye drops were administered as described earlier and the adherence to the cornea was studied 5, 15 and 30 minutes after application (see FIG. 4).
# [3] = 30 min after a single 30 μL eye drop
# [4] = 2 hours after a single 30 μL eye drop
# [5] = 24 hours after a single 30 μL eye drop
# [6] = rat, eye drops, green fluorescence of the carrier
Substance,adherence to the porcine cornea (fluorescence microscopy) [1],"Number of NP positive eyes out of total number eyes [2, 3]","Number of NP positive eyes out of total number eyes [2, 4]","Number of NP positive eyes out of total number eyes [2, 5]",adhesion to the cornea (fluorescence images of cryo sections) ([2]; eye drops),"adherence time on the cornea (period NPs are present) [2, 6]","time after application of the eye drops at which NPs are already observed on the cornea [2, 6] [min]"
"U2M-12: amphiphile with sequence TCCUUGGCGCAG, lipid modified nucleotides situated inside the chain (lipid-modified nucleotides inside the chain, which positions not given here, further chemistry not given here)",hardly any adherence,,,,,,
"U2T-12: lipid modified oligonucleotide UUTGGCGGATTC (5′→3′), U = dodecyne modified deoxyuridine; forms micellar NPs (DNA, [C12U] at 1, 2, backbone and methylation of C not given here; forms micellar nanoparticles)",,2/4,0/4,0/4,adhere significantly less,,
"U4T-12: lipid modified oligonucleotide UUUUGCGGATTC (5′→3′), U = dodecyne modified deoxyuridine; forms micellar NPs (DNA, [C12U] at 1, 2, 3, 4, backbone and methylation of C not given here; forms micellar nanoparticles)",good adherence,6/6,4/6,0/4,best attachment,at least four,≤ 5
"U4T-18: lipid modified oligonucleotide UUUUGCGGATTCGTCTGC (5′→3′), U = dodecyne modified deoxyuridine (DNA, [C12U] at 1, 2, 3, 4, backbone and methylation of C not given here)",,4/5,0/4,0/4,,,
"U6T-12: lipid modified oligonucleotide UUUUUUGGATTC (5′→3′), U = dodecyne modified deoxyuridine (DNA, [C12U] at 1, 2, 3, 4, 5, 6, backbone and methylation of C not given here)",,3/3,1/4,0/1,adhere significantly less,,
"U6T-20: lipid modified oligonucleotide UUUUUUGCGGATTCGTCTGC (5′→3′), U = dodecyne modified deoxyuridine (DNA, [C12U] at 1, 2, 3, 4, 5, 6, backbone and methylation of C not given here)",,2/2,1/3,0/3,,,
